Consider 5 compounds from ChEMBL document CHEMBL5715260, “Selectivity Literature for EUbOPEN Chemogenomic Library” (2024).

The target of test [1] is Nuclear receptor subfamily 2 group E member 1 (Homo sapiens) (UniProt Q9Y466). Put plainly: Selectivity interaction (Reporter gene assay) EUB0001157a NR2E1. Also on record: recommended concentration 10 uM. (Reporter assays use an easily measured gene product as a stand-in for the process of interest.)
The target in test [2] is T1, Alpha trans-inducing protein (Human alphaherpesvirus 1) (UniProt A0A5J6DW59). Kind of test: Selectivity interaction (Reporter gene assay) EUB0001157a UL48. More on the design: recommended concentration 10 uM.
For test [3], the target named is T2, Nuclear receptor subfamily 2 group C member 1 (Homo sapiens) (UniProt P13056).
T2 sequence (whole entry): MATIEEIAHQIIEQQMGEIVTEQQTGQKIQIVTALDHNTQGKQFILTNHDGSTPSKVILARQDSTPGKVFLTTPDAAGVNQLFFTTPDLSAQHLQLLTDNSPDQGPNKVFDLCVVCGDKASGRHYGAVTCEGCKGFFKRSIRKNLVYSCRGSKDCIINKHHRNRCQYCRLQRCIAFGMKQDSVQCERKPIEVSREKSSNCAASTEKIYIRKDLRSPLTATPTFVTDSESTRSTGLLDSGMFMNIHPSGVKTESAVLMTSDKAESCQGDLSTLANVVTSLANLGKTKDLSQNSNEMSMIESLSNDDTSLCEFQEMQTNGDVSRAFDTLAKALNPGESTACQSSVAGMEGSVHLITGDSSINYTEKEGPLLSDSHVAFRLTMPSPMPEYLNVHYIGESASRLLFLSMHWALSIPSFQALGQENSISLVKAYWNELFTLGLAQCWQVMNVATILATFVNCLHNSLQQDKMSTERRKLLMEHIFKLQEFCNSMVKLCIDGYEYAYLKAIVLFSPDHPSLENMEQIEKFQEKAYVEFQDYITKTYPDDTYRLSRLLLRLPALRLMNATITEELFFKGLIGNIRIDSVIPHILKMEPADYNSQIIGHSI
Kind of test: Selectivity interaction (Reporter gene assay) EUB0001157a NR2C1. More on the design: recommended concentration 10 uM.

Test [4] has as its target Steroidogenic factor 1 (Homo sapiens) (UniProt Q13285). Put plainly: Selectivity interaction (Reporter gene assay) EUB0001157a NR5A1. Also on record: recommended concentration 10 uM.
Test [5] addresses Nuclear receptor subfamily 4immunitygroup A member 1 (Homo sapiens) (UniProt P22736). Kind of test: Selectivity interaction (Reporter gene assay) EUB0001157a NR4A1. More on the design: recommended concentration 10 uM.
In test [6] the target is T3, Hepatocyte nuclear factor 4-alpha (Homo sapiens) (UniProt P41235).
T3 sequence (whole entry): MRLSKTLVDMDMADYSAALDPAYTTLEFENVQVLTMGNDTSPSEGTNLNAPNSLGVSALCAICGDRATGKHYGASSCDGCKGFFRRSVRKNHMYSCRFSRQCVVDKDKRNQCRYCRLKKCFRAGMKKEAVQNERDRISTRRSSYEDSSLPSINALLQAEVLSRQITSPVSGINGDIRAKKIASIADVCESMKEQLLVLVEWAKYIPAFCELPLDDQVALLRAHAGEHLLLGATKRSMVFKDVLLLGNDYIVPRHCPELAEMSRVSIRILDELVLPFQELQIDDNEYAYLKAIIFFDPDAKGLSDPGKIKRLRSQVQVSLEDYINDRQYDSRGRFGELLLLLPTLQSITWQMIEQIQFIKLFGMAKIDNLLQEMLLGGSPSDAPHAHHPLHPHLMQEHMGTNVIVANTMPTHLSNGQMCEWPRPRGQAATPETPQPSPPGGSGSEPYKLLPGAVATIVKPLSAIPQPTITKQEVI
Kind of test: Selectivity interaction (Reporter gene assay) EUB0001157a HNF4A. More on the design: recommended concentration 10 uM.

In test [7] the target is T4, Retinoic acid receptor RXR-alpha (Homo sapiens) (UniProt P19793).
T4 sequence (whole entry): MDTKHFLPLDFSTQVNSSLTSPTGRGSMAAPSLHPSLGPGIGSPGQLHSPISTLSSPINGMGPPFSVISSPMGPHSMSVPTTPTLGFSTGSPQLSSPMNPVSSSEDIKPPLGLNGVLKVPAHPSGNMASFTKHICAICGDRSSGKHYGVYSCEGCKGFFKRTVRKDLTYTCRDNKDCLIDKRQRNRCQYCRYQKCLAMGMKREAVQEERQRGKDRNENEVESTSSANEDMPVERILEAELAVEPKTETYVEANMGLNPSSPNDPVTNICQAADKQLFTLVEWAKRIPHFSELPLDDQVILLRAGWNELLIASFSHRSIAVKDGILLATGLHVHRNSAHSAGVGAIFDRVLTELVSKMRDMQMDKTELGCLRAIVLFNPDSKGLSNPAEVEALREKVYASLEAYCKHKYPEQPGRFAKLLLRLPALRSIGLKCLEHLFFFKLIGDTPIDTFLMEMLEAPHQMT
Put plainly: Selectivity interaction (Reporter gene assay) EUB0001157a RXRA. Also on record: recommended concentration 10 uM. The following applies: reference bexarotene 1 uM, Selectivity number of off-targets 0.0, Selectivity number of targets 1.0, Source Knowledge inhouse.

Test [8] concerns the target Steroidogenic factor 1 (Homo sapiens) (UniProt Q13285). Kind of test: Selectivity interaction (Reporter gene assay) EUB0001152a NR5A1. More on the design: recommended concentration 10 uM.
Test [9] has as its target Nuclear receptor subfamily 4immunitygroup A member 1 (Homo sapiens) (UniProt P22736). Kind of test: Selectivity interaction (Reporter gene assay) EUB0001152a NR4A1. Also on record: recommended concentration 10 uM.
For test [10], the target named is Nuclear receptor subfamily 2 group E member 1 (Homo sapiens) (UniProt Q9Y466). Put plainly: Selectivity interaction (Reporter gene assay) EUB0001152a NR2E1. More on the design: recommended concentration 10 uM.
The target in test [11] is T1, Alpha trans-inducing protein (Human alphaherpesvirus 1). Put plainly: Selectivity interaction (Reporter gene assay) EUB0001152a UL48. Also on record: recommended concentration 10 uM.
Test [12] concerns the target T4, Retinoic acid receptor RXR-alpha (Homo sapiens). Kind of test: Selectivity interaction (Reporter gene assay) EUB0001152a RXRA. More on the design: recommended concentration 10 uM.
In test [13] the target is T3, Hepatocyte nuclear factor 4-alpha (Homo sapiens). Put plainly: Selectivity interaction (Reporter gene assay) EUB0001152a HNF4A. Also on record: recommended concentration 10 uM.
The target of test [14] is T2, Nuclear receptor subfamily 2 group C member 1 (Homo sapiens). Put plainly: Selectivity interaction (Reporter gene assay) EUB0001152a NR2C1. More on the design: recommended concentration 10 uM. The following applies: screened at recom. conc., Selectivity number of off-targets 1.0, Selectivity number of targets 5.0, Source Knowledge inhouse.
The target of test [15] is Steroidogenic factor 1 (Homo sapiens) (UniProt Q13285). Kind of test: Selectivity interaction (Reporter gene assay) EUB0001155a NR5A1. More on the design: recommended concentration 10 uM.
Test [16] deals with Nuclear receptor subfamily 4immunitygroup A member 1 (Homo sapiens) (UniProt P22736). Put plainly: Selectivity interaction (Reporter gene assay) EUB0001155a NR4A1. More on the design: recommended concentration 10 uM.
Test [17] addresses T3, Hepatocyte nuclear factor 4-alpha (Homo sapiens). Kind of test: Selectivity interaction (Reporter gene assay) EUB0001155a HNF4A. More on the design: recommended concentration 10 uM.
The target in test [18] is T1, Alpha trans-inducing protein (Human alphaherpesvirus 1). Kind of test: Selectivity interaction (Reporter gene assay) EUB0001155a UL48. More on the design: recommended concentration 10 uM.
For test [19], the target named is Nuclear receptor subfamily 2 group E member 1 (Homo sapiens) (UniProt Q9Y466). Kind of test: Selectivity interaction (Reporter gene assay) EUB0001155a NR2E1. Also on record: recommended concentration 10 uM. The note with it: screened at recom. conc., Selectivity number of off-targets 2.0, Selectivity number of targets 5.0, Source Knowledge inhouse.
In test [20] the target is T2, Nuclear receptor subfamily 2 group C member 1 (Homo sapiens). Kind of test: Selectivity interaction (Reporter gene assay) EUB0001155a NR2C1. The note with it: screened at recom. conc., Selectivity number of off-targets 2.0, Selectivity number of targets 5.0, Source Knowledge inhouse. Also on record: recommended concentration 10 uM.
The target of test [21] is T4, Retinoic acid receptor RXR-alpha (Homo sapiens). Put plainly: Selectivity interaction (Reporter gene assay) EUB0001155a RXRA. The following applies: reference bexarotene 1 uM, Selectivity number of off-targets 0.0, Selectivity number of targets 1.0, Source Knowledge inhouse. More on the design: recommended concentration 10 uM.
Test [22] has as its target T3, Hepatocyte nuclear factor 4-alpha (Homo sapiens). Put plainly: Selectivity interaction (Reporter gene assay) EUB0001159a HNF4A. Also on record: recommended concentration 1 uM.
Test [23] concerns the target Nuclear receptor subfamily 2 group E member 1 (Homo sapiens) (UniProt Q9Y466). Kind of test: Selectivity interaction (Reporter gene assay) EUB0001159a NR2E1. Also on record: recommended concentration 1 uM.
Test [24] has as its target Steroidogenic factor 1 (Homo sapiens) (UniProt Q13285). Kind of test: Selectivity interaction (Reporter gene assay) EUB0001159a NR5A1. Also on record: recommended concentration 1 uM.
In test [25] the target is Nuclear receptor subfamily 4immunitygroup A member 1 (Homo sapiens) (UniProt P22736). Put plainly: Selectivity interaction (Reporter gene assay) EUB0001159a NR4A1. More on the design: recommended concentration 1 uM.
Test [26] addresses T1, Alpha trans-inducing protein (Human alphaherpesvirus 1). Kind of test: Selectivity interaction (Reporter gene assay) EUB0001159a UL48. More on the design: recommended concentration 1 uM.
Test [27] has as its target T4, Retinoic acid receptor RXR-alpha (Homo sapiens). Put plainly: Selectivity interaction (Reporter gene assay) EUB0001159a RXRA. The following applies: reference bexarotene 1 uM, Selectivity number of off-targets 0.0, Selectivity number of targets 1.0, Source Knowledge inhouse. More on the design: recommended concentration 1 uM.
Test [28] concerns the target T2, Nuclear receptor subfamily 2 group C member 1 (Homo sapiens). Kind of test: Selectivity interaction (Reporter gene assay) EUB0001159a NR2C1. More on the design: recommended concentration 1 uM.
Test [29] deals with Nuclear receptor subfamily 4immunitygroup A member 1 (Homo sapiens) (UniProt P22736). Kind of test: Selectivity interaction (Reporter gene assay) EUB0001160a NR4A1. More on the design: recommended concentration 1 uM.
Test [30] concerns the target T2, Nuclear receptor subfamily 2 group C member 1 (Homo sapiens). Put plainly: Selectivity interaction (Reporter gene assay) EUB0001160a NR2C1. Also on record: recommended concentration 1 uM.
In test [31] the target is Steroidogenic factor 1 (Homo sapiens) (UniProt Q13285). Kind of test: Selectivity interaction (Reporter gene assay) EUB0001160a NR5A1. Also on record: recommended concentration 1 uM.
In test [32] the target is T1, Alpha trans-inducing protein (Human alphaherpesvirus 1). Kind of test: Selectivity interaction (Reporter gene assay) EUB0001160a UL48. Also on record: recommended concentration 1 uM.
Test [33] has as its target T4, Retinoic acid receptor RXR-alpha (Homo sapiens). Put plainly: Selectivity interaction (Reporter gene assay) EUB0001160a RXRA. More on the design: recommended concentration 1 uM.
For test [34], the target named is Nuclear receptor subfamily 2 group E member 1 (Homo sapiens) (UniProt Q9Y466). Kind of test: Selectivity interaction (Reporter gene assay) EUB0001160a NR2E1. More on the design: recommended concentration 1 uM.
The target in test [35] is T3, Hepatocyte nuclear factor 4-alpha (Homo sapiens). Put plainly: Selectivity interaction (Reporter gene assay) EUB0001160a HNF4A. More on the design: recommended concentration 1 uM.

Each structure is given as a SMILES string.

Nuclear receptor subfamily 4immunitygroup A member 1 (Homo sapiens), sequence (P22736 whole entry): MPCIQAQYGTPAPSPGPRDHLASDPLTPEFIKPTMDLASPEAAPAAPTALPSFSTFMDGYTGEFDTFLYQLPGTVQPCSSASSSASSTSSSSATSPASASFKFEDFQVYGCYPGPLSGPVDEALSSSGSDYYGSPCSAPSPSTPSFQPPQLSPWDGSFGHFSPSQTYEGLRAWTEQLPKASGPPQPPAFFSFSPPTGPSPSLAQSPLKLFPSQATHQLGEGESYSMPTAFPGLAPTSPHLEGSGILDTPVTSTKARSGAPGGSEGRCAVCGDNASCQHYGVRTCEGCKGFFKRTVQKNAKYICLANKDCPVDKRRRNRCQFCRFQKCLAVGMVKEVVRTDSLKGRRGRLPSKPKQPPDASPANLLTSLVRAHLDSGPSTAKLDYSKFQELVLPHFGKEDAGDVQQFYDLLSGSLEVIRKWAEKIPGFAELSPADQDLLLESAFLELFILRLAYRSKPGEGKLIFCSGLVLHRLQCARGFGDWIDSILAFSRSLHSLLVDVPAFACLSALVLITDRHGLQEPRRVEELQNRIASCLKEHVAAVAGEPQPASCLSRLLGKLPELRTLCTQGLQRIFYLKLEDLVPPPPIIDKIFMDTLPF
Nuclear receptor subfamily 2 group E member 1 (Homo sapiens), sequence (Q9Y466 whole entry): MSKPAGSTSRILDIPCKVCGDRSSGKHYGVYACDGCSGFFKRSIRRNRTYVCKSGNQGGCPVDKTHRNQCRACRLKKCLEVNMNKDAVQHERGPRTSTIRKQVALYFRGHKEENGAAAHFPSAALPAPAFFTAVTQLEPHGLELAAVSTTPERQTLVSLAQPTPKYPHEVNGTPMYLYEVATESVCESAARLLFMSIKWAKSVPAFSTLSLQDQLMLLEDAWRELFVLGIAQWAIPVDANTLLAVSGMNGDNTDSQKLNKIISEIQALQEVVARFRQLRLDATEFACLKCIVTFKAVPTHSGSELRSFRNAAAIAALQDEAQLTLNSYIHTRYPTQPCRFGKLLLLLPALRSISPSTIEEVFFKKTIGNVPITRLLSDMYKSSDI
Steroidogenic factor 1 (Homo sapiens), sequence (Q13285 whole entry): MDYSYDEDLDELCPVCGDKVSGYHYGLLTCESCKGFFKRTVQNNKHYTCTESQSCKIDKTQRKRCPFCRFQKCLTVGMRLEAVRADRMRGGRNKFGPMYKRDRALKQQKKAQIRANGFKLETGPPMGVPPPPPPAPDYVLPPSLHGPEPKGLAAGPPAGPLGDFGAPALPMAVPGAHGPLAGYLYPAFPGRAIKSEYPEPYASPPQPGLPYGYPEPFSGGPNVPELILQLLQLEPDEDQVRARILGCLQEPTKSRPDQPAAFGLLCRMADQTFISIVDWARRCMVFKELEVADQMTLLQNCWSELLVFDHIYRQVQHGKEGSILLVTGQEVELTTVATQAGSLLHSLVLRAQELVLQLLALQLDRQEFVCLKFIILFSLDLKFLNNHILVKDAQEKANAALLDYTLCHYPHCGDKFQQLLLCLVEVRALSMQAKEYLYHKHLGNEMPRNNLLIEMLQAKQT
T1 sequence (A0A5J6DW59 as listed by the source): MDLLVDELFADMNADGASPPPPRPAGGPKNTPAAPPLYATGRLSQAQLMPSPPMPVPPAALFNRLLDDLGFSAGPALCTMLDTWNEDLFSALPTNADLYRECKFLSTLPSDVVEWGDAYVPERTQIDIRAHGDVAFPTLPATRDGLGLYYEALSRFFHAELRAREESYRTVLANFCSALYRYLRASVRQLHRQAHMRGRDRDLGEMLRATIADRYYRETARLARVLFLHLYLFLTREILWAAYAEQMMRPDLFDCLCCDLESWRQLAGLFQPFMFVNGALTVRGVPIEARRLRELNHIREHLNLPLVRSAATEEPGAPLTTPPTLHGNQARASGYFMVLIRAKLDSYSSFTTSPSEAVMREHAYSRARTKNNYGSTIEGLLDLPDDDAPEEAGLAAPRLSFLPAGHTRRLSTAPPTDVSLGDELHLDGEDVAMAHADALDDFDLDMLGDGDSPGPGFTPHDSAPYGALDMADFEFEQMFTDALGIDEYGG

On to `O=S(=O)(Nc1ccc(C(O)(C(F)(F)F)C(F)(F)F)cc1)c1cccs1`, for which the Remaining activity in test [1] came to 0.634; in [3], 0.846; in [4], 0.818; in [5] it was 0.943; in test [6], 0.822. Moreover, the P-value in test [2] amounted to 0.00195. Also, the Relative activation in [7] was 0.211%.

As for `CCOC(=O)N1CCC(CN(Cc2ccc(Cl)cc2)Cc2ccc([N+](=O)[O-])s2)C1` (stereo not given), the Remaining activity was 0.905 in test [8], 0.62 in [10], 0.579 in test [13] and 0.46 in [14]. In test [9], this compound yielded a Fold activation of 1.3. The same compound displayed a P-value in [11] of 0.0179. The compound also came in with a Relative activation in [12] of 0.237%.

With `CCCCCNC(=O)N1CCC(CN(Cc2ccc(Cl)cc2)Cc2ccc([N+](=O)[O-])s2)C1` (stereo not given), the Fold activation in test [15] was determined as 1.16; in test [16] it was 1.24. For the same compound, the figures for the Remaining activity in test [17], in test [19] and in test [20] were 0.711, 0.483 and 0.487, respectively. The P-value in test [18] is 1.75e-05. Moreover, the Relative activation in test [21] was found to be 0.1%.

Regarding `CCc1ccc(N(CC(C)C)S(=O)(=O)c2ccc(OCC3CCOCC3)c(CO)c2)cc1`, the Remaining activity in test [22] was 0.994; in test [23] it was 0.852; in [24], 0.989; in test [25] it was 0.905; in [28], 0.852. In [26], this compound had a P-value of 0.00142. In test [27], this compound yielded a Relative activation of 0.288%.

As to `OC(c1ccc(-c2ccc(CN3CCN(Cc4ccncc4)CC3)cc2)c(F)c1)(C(F)(F)F)C(F)(F)F`, the Remaining activity turned out to be 0.922 in test [29], 0.561 in test [31] and 0.878 in test [35]. Further, the Fold activation in [30] was 1.26; in [34], 1.21. This compound also gave a P-value in [32] of 0.00194. Besides, in [33], the Relative activation came to 1.19%.
